Consider six substances from patent publication US20120083522A1, “MODULATION OF INFLAMMATORY RESPONSES BY FACTOR XI” (Isis Pharmaceuitcals, inc., priority 2009, published 2012).

In the oligonucleotide strings, read from the 5' end, every base follows the letter of its sugar. An asterisk marks phosphorothioate; unmarked linkages are phosphodiester. Other units and linkages are bracketed, terminal groups are in braces. A string of capitals states the bases alone. e = 2'-O-(2-methoxyethyl) (MOE); [5mC] = 5-methylcytosine; d = 2'-deoxy (DNA)

Common to all, as to assay type: cell-based
The subject of series [1] is human Factor XI mRNA. The series is described as follows: Dose-dependent inhibition in HepG2 cells, electroporation (Example 4). The settings on record: 16 hours. In outline: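 HepG2 cells electroporated with 0.7, 2.2, 6.7 or 20 μM antisense gapmer and harvested after ~16 h. Factor XI mRNA quantified by qRT-PCR (primer probe set RTS 2966), normalised to total RNA (RIBOGREEN). Reported as percent inhibition versus untreated control cells.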

Series [2] concerns human Factor XI mRNA. The series is described as follows: Dose-dependent antisense inhibition in HepG2 cells, lipofectin (Example 2). The settings on record: approximately 16 hours. As for the experimental part: Cells were plated at a density of 10,000 cells per well and transfected using lipofectin reagent with 9.375 nM, 18.75 nM, 37.5 nM, 75 nM, and 150 nM concentrations of antisense oligonucleotide, as specified in Table 3. After a treatment period of approximately 16 hours, RNA was isolated from the cells and Factor XI mRNA levels were measured by quantitative real-time PCR. Human Factor XI primer probe set RTS 2966 (forward sequence: […], incorporated herein as SEQ ID NO: 3; reverse sequence: […], incorporated herein as SEQ ID NO: 4; probe sequence: TTGTCTACTGAAGCACACCCAAACAGGGAX, wherein X is the fluorophore, incorporated herein as SEQ ID NO: 5) was used to measure mRNA levels. Factor XI mRNA levels were adjusted according to total RNA content, as measured by RIBOGREEN®. Results are presented as percent inhibition of Factor XI, relative to untreated control cells.

Series [3] has as its system human Factor XI mRNA. The series is described as follows: Dose-dependent inhibition in HepG2 cells, lipofectin (Example 4). The conditions noted are these: 16 hours. The method, boiled down:
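HepG2 cells at 10,000 per well were lipofectin-transfected with 9.375, 18.75, 37.5 or 75 nM antisense oligonucleotide for about 16 h. Factor XI mRNA was quantified by real-time PCR (primer probe set RTS 2966) and normalised to RIBOGREEN total RNA. Values are percent inhibition versus untreated cells.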

In series [4] the test system is human Factor XI mRNA. The series is described as follows: Antisense inhibition in HepG2 cells by microwalk gapmers, 75 nM, lipofectin (Example 3). The conditions noted are these: HepG2 cells, 75 nM. In outline: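 HepG2 cells (10,000 per well) were transfected with 75 nM gapmer using lipofectin and treated for about 24 h. Factor XI mRNA was quantified by real-time PCR, normalized to RiboGreen total RNA and expressed as percent inhibition versus untreated controls.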

Series [5] has as its system human Factor XI mRNA. The series is described as follows: Dose-dependent inhibition and IC50 in HepG2 cells, electroporation (Example 15). The procedure: Cells were plated at a density of 20,000 cells per well and transfected using electroporation with 123.46 nM, 370.37 nM, 1,111.11 nM, 3,333.33 nM and 10,000 nM concentrations of antisense oligonucleotide, as specified in Table 52. After a treatment period of approximately 16 hours, RNA was isolated from the cells and Factor XI mRNA levels were measured by quantitative real-time PCR. Human Factor XI primer probe set RTS 2966 was used to measure mRNA levels. Factor XI mRNA levels were adjusted according to total RNA content, as measured by RIBOGREEN. Results are presented as percent inhibition of Factor XI, relative to untreated control cells.

Series [6] relates to human Factor XI mRNA. The series is described as follows: Antisense inhibition in HepG2 cells by microwalk gapmers, 8,000 nM, electroporation (Example 14). The conditions noted are these: HepG2 cells, 8,000 nM. As for the experimental part:
These microwalk gapmers were tested in vitro. Cultured HepG2 cells at a density of 20,000 cells per well were transfected using electroporation with 8,000 nM antisense oligonucleotide. After a treatment period of approximately 24 hours, RNA was isolated from the cells and Factor XI mRNA levels were measured by quantitative real-time PCR. Factor XI mRNA levels were adjusted according to total RNA content, as measured by RIBOGREEN. Results are presented as percent inhibition of Factor XI, relative to untreated control cells.
The chimeric antisense oligonucleotides in Table 51 were designed as 5-10-5 MOE, 5-8-5 and 6-8-6 MOE gapmers. The first two listed gapmers in Table 51 are the original gapmers (ISIS 416850 and ISIS 416858) from which ISIS 445493-445543 were designed via microwalk, and are designated by an asterisk. The 5-10-5 gapmers are 20 nucleotides in length, wherein the central gap segment is comprised of ten 2′-deoxynucleotides and is flanked on both sides (in the 5′ and 3′ directions) by wings comprising five nucleotides each. The 5-8-5 gapmers are 18 nucleotides in length, wherein the central gap segment is comprised of eight 2′-deoxynucleotides and is flanked on both sides (in the 5′ and 3′ directions) by wings comprising five nucleotides each. The 6-8-6 gapmers are 20 nucleotides in length, wherein the central gap segment is comprised of eight 2′-deoxynucleotides and is flanked on both sides (in the 5′ and 3′ directions) by wings comprising six nucleotides each. For each of the motifs (5-10-5, 5-8-5 and 6-8-6), each nucleotide in the 5′ wing segment and each nucleotide in the 3′ wing segment has a 2′-MOE modification. The internucleoside linkages throughout each gapmer are phosphorothioate (P═S) linkages. All cytidine residues throughout each gapmer are 5-methylcytidines. “Human Target start site” indicates the 5′-most nucleotide to which the gapmer is targeted in the human sequence. “Human Target stop site” indicates the 3′-most nucleotide to which the gapmer is targeted in the human sequence. Each gapmer listed in Table 51 is targeted to SEQ ID NO: 1 (GENBANK Accession No. NM_000128.3). Each gapmer is Table 51 is also fully cross-reactive with the rhesus monkey Factor XI gene sequence, designated herein as SEQ ID NO: 274 (exons 1-15 GENBANK Accession No. NW—001118167.1). ‘Rhesus monkey start site’ indicates the 5′-most nucleotide to which the gapmer is targeted in the rhesus monkey sequence. ‘Rhesus monkey stop site’ indicates the 3′-most nucleotide to which the gapmer is targeted to the rhesus monkey sequence.

As for “412203 (antisense eA*eA*eT*eG*eT*d[5mC]*dT*dT*dT*dG*dT*dT*dG*d[5mC]*dA*eA*eG*e[5mC]*eG*e[5mC]) [compound 412203]”, the “percent inhibition of Factor XI mRNA, relative to untreated control cells” value in series [1] (0.7 μM) is 11%; in series [1] (2.2 μM), 60%; in series [1] (6.7 μM), 70%; in series [1] (20 μM), 91%; in series [3] (9.375 nM) it was 33%; in series [3] (18.75 nM), 40%. The “percent inhibition of Factor XI mRNA, relative to untreated control cells” value is recorded as 62% in series [3] (37.5 nM) and 74% in series [3] (75 nM). Further, the “percent inhibition of Factor XI” value is given as 29% in series [2] (9.375 nM); 15% in series [2] (18.75 nM); 61% in series [2] (37.5 nM); 77% in series [2] (75 nM); 82% in series [2] (150 nM).
Turning to “412212 (antisense e[5mC]*e[5mC]*eG*eG*eG*dA*dT*dG*dA*dT*dG*dA*dG*dT*dG*e[5mC]*eA*eG*eA*eT) [compound 412212]”, the “% inhibition of human Factor XI mRNA levels” value in series [4] (oligonucleotides targeted to nucleobases 1018 to 1042 of SEQ ID NO: 1) was 89%. For the same substance, the “percent inhibition of Factor XI” value in series [2] (9.375 nM) is recorded as 28%; in series [2] (18.75 nM), 45%; in series [2] (37.5 nM), 59%; in series [2] (75 nM), 73%; in series [2] (150 nM) it was 88%.
With “413467 (antisense eG*eG*eT*e[5mC]*e[5mC]*dA*d[5mC]*dA*dT*dA*dA*dA*dT*dG*dT*e[5mC]*eT*eT*eT*eG) [compound 413467]”, the “percent inhibition of Factor XI mRNA, relative to untreated control cells” value in series [1] (0.7 μM) amounted to 5%; in series [1] (2.2 μM), 31%; in series [1] (6.7 μM), 65%; in series [1] (20 μM), 89%; in series [3] (9.375 nM) it was 35%; in series [3] (18.75 nM), 51%. The “percent inhibition of Factor XI mRNA, relative to untreated control cells” value in series [3] (37.5 nM) came to 62%; in series [3] (75 nM), 69%. In addition, the “percent inhibition of Factor XI” value in series [2] (9.375 nM) came out at 2%; in series [2] (18.75 nM), 35%; in series [2] (37.5 nM) it was 49%; in series [2] (75 nM) it was 61%; in series [2] (150 nM), 47%.
On to “413468 (antisense eG*eT*e[5mC]*eT*eA*dG*dG*dT*d[5mC]*d[5mC]*dA*d[5mC]*dA*dT*dA*eA*eA*eT*eG*eT) [compound 413468]”, for which the “percent inhibition of Factor XI” value in series [2] (9.375 nM) was determined as 14%; in series [2] (18.75 nM), 34%; in series [2] (37.5 nM), 56%; in series [2] (75 nM), 78%; in series [2] (150 nM), 75%.
In the case of “413469 (antisense eT*eG*e[5mC]*e[5mC]*e[5mC]*dT*dT*d[5mC]*dA*dT*dG*dT*d[5mC]*dT*dA*eG*eG*eT*e[5mC]*e[5mC]) [compound 413469]”, the “percent inhibition of Factor XI” value in series [2] (9.375 nM) was found to be 24%; in series [2] (18.75 nM), 33%; in series [2] (37.5 nM), 53%; in series [2] (75 nM), 70%; in series [2] (150 nM), 84%.
As for “416857 (antisense e[5mC]*eG*eG*e[5mC]*eA*dT*dT*dG*dG*dT*dG*d[5mC]*dA*d[5mC]*dA*eG*eT*eT*eT*e[5mC]) [compound 416857]”, the “percent inhibition of Factor XI mRNA” value in series [5] (electroporation, 123.47 nM) is 2%; in series [5] (electroporation, 370.37 nM) it was 20%; in series [5] (electroporation, 1,111.11 nM), 35%; in series [5] (electroporation, 3,333.33 nM), 62%; in series [5] (electroporation, 10,000.0 nM), 72%. In addition, the “% inhibition of human Factor XI mRNA levels” value in series [4] (oligonucleotides targeted to nucleobases 1275 to 1318 of SEQ ID NO: 1) was 92%. Further, the “Percent inhibition of human Factor XI mRNA levels” value in series [6] was found to be 91%.
